Source: PubChem BioAssay (NCI)
“And” between values parts separate entries of the source, which are not always exact repeats. Identical values can stand only once.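 How tested: cells in 96-well plates exposed to compound for 48 hours at five concentrations. At the GI50, growth is halved. At the TGI there is no net growth.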

system: MDA-MB-231 breast; test: NCI tumour cell line growth inhibition, 48 h

SMILES | GI50 [µM] | TGI [µM]
Nc1nn2cc(F)cnc2c1C(=O)Nc1cncc(F)c1N1CCC(C(=O)N2CCN(C3COC3)CC2)CC1 | 1.93 | 6.37

system: PC-3 prostate; test: NCI tumour cell line growth inhibition, 48 h

SMILES | GI50 [µM] | TGI [µM]
COC(=O)COc1ccccc1/C=C1\N=C(c2ccccc2)N(c2cc(C(F)(F)F)ccc2Cl)C1=O | 32.5 | > 100
C=C1C(=O)OC2CC(C)C(C(CC(C)=O)OC(C)=O)=CCC12 (stereo not drawn) | – | 41.8
CC(=O)OC1COC(Oc2c(C)c3c4c(c2O)[C@@H](C)CC[C@@H]4[C@@H](C)C[C@H]3C=C(C)C)C(O)C1OC(C)=O (stereo partly drawn) | 11.3 | 25.2
S=C(Nc1ccc(Cl)cc1)Nc1ccc(-c2nc3ccccc3s2)cc1 | 14.3 | 54.9
CC(=O)Nc1ccc(S(=O)(=O)N2C(=O)CCC2C(=O)Nc2ccc(Br)cc2)cc1 (stereo not drawn) | 0.984 | 12.1
CO/N=C(/C)c1cccc(Nc2cc(-n3nnc4ccccc43)nc3ccccc23)c1 | 8.64 | 61.9
C[N+](C)(C)CC1CCCc2ccccc2C1=O (stereo not drawn) | – | 30.8
COc1cc(C(=O)N2CCN(C=O)C2=S)cc(OC)c1OC | 22.2 | 58.2
Cn1c(I)c(C#CCO[Si](C)(C)C(C)(C)C)c(=O)[nH]c1=O | 17 | 32.7
CCCCC#CC1=C(Br)C(=O)OC1 | 1.28 | 9.43
O=C(Nc1ccc(Br)cc1F)c1cc(F)ccc1O | 1.15 | 7.24
CC/C=C\C[C@H](O)C/C=C1/C(=O)C(Cl)=C[C@@H]1C/C=C\CCCC(=O)OC | 0.54 | 2.33
c1ccc(-c2nnc(-c3ccccn3)s2)nc1 | > 100 | > 100
CN1CCN(C2CCN(C(=O)Nc3cc(Oc4ccc(NC(=O)C5(C(=O)Nc6ccc(F)cc6)CC5)c(F)c4)ccn3)CC2)CC1 | 1.01 | > 3.84
CCN1CCN(C(=O)[C@@]2(C)CC[C@]3(C)CC[C@]4(C)C(=CC(=O)[C@@H]5[C@@]6(C)CC[C@H](OC7C[C@@H](O)[C@@H](O)C(C)O7)C(C)(C)[C@@H]6CC[C@]54C)[C@@H]3C2)CC1 (stereo partly drawn) | 2.47 | 9.02
Nc1nn2cc(F)cnc2c1C(=O)Nc1cncc(F)c1N1CCC(C(=O)N2CCN(C3COC3)CC2)CC1 | 2.06 | > 100

system: SN12C renal; test: NCI tumour cell line growth inhibition, 48 h

SMILES | GI50 | TGI
Clc1ccc2c(c1)[nH]c1c2nc2ccccn21 | 36.1 µM and 15.4 µM | > 100 µM and 32.2 µM
CCOC(=O)c1cnc2c(ccc3[nH]n(C)nc32)c1=O | – | > 100 µM
NC(=S)N/N=C(\CC1OC(=O)c2ccccc21)c1ccc(Cl)cc1 (stereo not drawn) | – | > 100 µM
COc1ccc2occ(CCC(=O)O)c2c1 | – | > 100 µM
COC(=O)C(C(=O)c1ccccc1)C(C(=O)C(=O)Nc1ccc(OC)cc1OC)C(=O)C(=O)c1ccc(C)cc1 (stereo not drawn) | – | > 100 µM
CC1(C)COC(C2(C)C(=O)C=C(c3ccccc3)c3ccccc32)=N1 (stereo not drawn) | – | > 100 µM
O=C(Nc1ccn(CCO)c(=O)n1)c1ccccc1 | – | > 100 µM
O=C1CCC2(c3ccc(Cl)cc3)Nc3ncccc3N12 (stereo not drawn) | – | > 100 µM
CC12C/C(=C\c3ccccc3)C(=O)C3C1CCCC32 | – | > 100 µM
OC(CC1SCCCS1)c1ccccc1 (stereo not drawn) | – | > 100 µM
CCCCOC(=O)CNC(=O)OC/C=C/C#CC#C/C=C/COC(=O)NCC(=O)OCCCC | > 100 µM | > 100 µM
O=C1c2ccccc2C(=O)N1CCn1ccc(NC(c2ccccc2)(c2ccccc2)c2ccccc2)nc1=O | – | 83 µM
CC(C)(C)NNC(=O)CCn1[nH]c(=O)c(Cl)c(Cl)c1=O | – | > 100 µM
CCC12CCCN(Cc3ccccc3)C1c1c(n(C)c3ccccc13)CC2 (stereo not drawn) | – | > 253 µM
CCN(CC)CCCN1CCc2c([nH]c3ccccc23)C1c1cccnc1 (stereo not drawn) | – | > 100 µM
Nc1nc(Cl)cc(NCCCCCCCCNc2cc(Cl)nc(N)n2)n1 | – | > 100 µM
CC(C)N(C(=O)C12C3C4C1C1C4(C#N)C3C12C#N)C(C)C (stereo not drawn) | – | > 100 µM
O=C1CCC(Cl)=CC2CCCN12 (stereo not drawn) | – | > 100 µM
c1ccc2cc(-c3cc4ccccc4s3)ccc2c1 | – | > 100 µM
Cc1ccc(S(=O)(=O)N(C=O)N=C2CCN(Cc3ccccc3)CC2)cc1 | – | > 100 µM

SMILES | GI50 | TGI
CC(C)C(CCl)NC(=O)c1cccc(C(=O)N[C@H](CCl)C(C)C)n1 (stereo in doubt) | – | > 100 µM
CCC(=O)CC(=O)CCC(=O)Nc1cc(C)ccc1C | – | > 100 µM
COC(=O)COc1ccccc1/C=C1\N=C(c2ccccc2)N(c2cc(C(F)(F)F)ccc2Cl)C1=O | 60.5 µM | > 100 µM
C=C1C(=O)OC2CC(C)C(C(CC(C)=O)OC(C)=O)=CCC12 (stereo not drawn) | – | 15 µM
CC(=O)OC1COC(Oc2c(C)c3c4c(c2O)[C@@H](C)CC[C@@H]4[C@@H](C)C[C@H]3C=C(C)C)C(O)C1OC(C)=O (stereo partly drawn) | 12.4 µM | 25.8 µM
S=C(Nc1ccc(Cl)cc1)Nc1ccc(-c2nc3ccccc3s2)cc1 | 15.4 µM | 35 µM
CC(=O)Nc1ccc(S(=O)(=O)N2C(=O)CCC2C(=O)Nc2ccc(Br)cc2)cc1 (stereo not drawn) | 2.79 µM | 36 µM
CC(=O)CCn1ncc(Cl)c(Cl)c1=O | – | 27.9 µM
CO/N=C(/C)c1cccc(Nc2cc(-n3nnc4ccccc43)nc3ccccc23)c1 | 32.8 µM | > 100 µM
C[N+](C)(C)CC1CCCc2ccccc2C1=O (stereo not drawn) | 18.9 µM | 38.5 µM
COc1cc(C(=O)N2CCN(C=O)C2=S)cc(OC)c1OC | 20.2 µM | 40.2 µM
Cn1c(I)c(C#CCO[Si](C)(C)C(C)(C)C)c(=O)[nH]c1=O | 17.1 µM | 34.2 µM
CN1CC(=O)N2Cc3ccccc3-n3cccc3C2C1 (stereo not drawn) | – | > 100 µM
CCCCC#CC1=C(Br)C(=O)OC1 | 1.58 µM | 4.27 µM
O=C(Nc1ccc(Br)cc1F)c1cc(F)ccc1O | 0.366 µM | 2.92 µM
CC/C=C\C[C@H](O)C/C=C1/C(=O)C(Cl)=C[C@@H]1C/C=C\CCCC(=O)OC | 0.426 µM | 1.33 µM
c1ccc(-c2nnc(-c3ccccn3)s2)nc1 | > 100 µM | > 100 µM
CN1CCN(C2CCN(C(=O)Nc3cc(Oc4ccc(NC(=O)C5(C(=O)Nc6ccc(F)cc6)CC5)c(F)c4)ccn3)CC2)CC1 | 0.855 µM | > 7.82 µM
CCN1CCN(C(=O)[C@@]2(C)CC[C@]3(C)CC[C@]4(C)C(=CC(=O)[C@@H]5[C@@]6(C)CC[C@H](OC7C[C@@H](O)[C@@H](O)C(C)O7)C(C)(C)[C@@H]6CC[C@]54C)[C@@H]3C2)CC1 (stereo partly drawn) | 0.896 µM | 1.83 µM
Nc1nn2cc(F)cnc2c1C(=O)Nc1cncc(F)c1N1CCC(C(=O)N2CCN(C3COC3)CC2)CC1 | 0.987 µM | 6.17 µM

system: SNB-78 CNS; test: NCI tumour cell line growth inhibition, 48 h

SMILES | TGI
Clc1ccc2c(c1)[nH]c1c2nc2ccccn21 | 83.9 µM and 61.6 µM
CCOC(=O)c1cnc2c(ccc3[nH]n(C)nc32)c1=O | 38.6 µM
NC(=S)N/N=C(\CC1OC(=O)c2ccccc21)c1ccc(Cl)cc1 (stereo not drawn) | > 100 µM
COc1ccc2occ(CCC(=O)O)c2c1 | > 100 µM
COC(=O)C(C(=O)c1ccccc1)C(C(=O)C(=O)Nc1ccc(OC)cc1OC)C(=O)C(=O)c1ccc(C)cc1 (stereo not drawn) | > 100 µM
O=C(Nc1ccn(CCO)c(=O)n1)c1ccccc1 | > 100 µM
O=C1CCC2(c3ccc(Cl)cc3)Nc3ncccc3N12 (stereo not drawn) | > 100 µM
CCCCOC(=O)CNC(=O)OC/C=C/C#CC#C/C=C/COC(=O)NCC(=O)OCCCC | > 10 µM
O=C1c2ccccc2C(=O)N1CCn1ccc(NC(c2ccccc2)(c2ccccc2)c2ccccc2)nc1=O | > 100 µM
CCN(CC)CCCN1CCc2c([nH]c3ccccc23)C1c1cccnc1 (stereo not drawn) | > 100 µM
Nc1nc(Cl)cc(NCCCCCCCCNc2cc(Cl)nc(N)n2)n1 | > 100 µM
CC(C)N(C(=O)C12C3C4C1C1C4(C#N)C3C12C#N)C(C)C (stereo not drawn) | > 100 µM
O=C1CCC(Cl)=CC2CCCN12 (stereo not drawn) | > 100 µM
c1ccc2cc(-c3cc4ccccc4s3)ccc2c1 | > 100 µM
Cc1ccc(S(=O)(=O)N(C=O)N=C2CCN(Cc3ccccc3)CC2)cc1 | > 100 µM
CC(C)C(CCl)NC(=O)c1cccc(C(=O)N[C@H](CCl)C(C)C)n1 (stereo in doubt) | > 100 µM
CCC(=O)CC(=O)CCC(=O)Nc1cc(C)ccc1C | > 100 µM
CC(=O)CCn1ncc(Cl)c(Cl)c1=O | 43 µM
CN1CC(=O)N2Cc3ccccc3-n3cccc3C2C1 (stereo not drawn) | > 100 µM
